# Assay results published in patent US20110184188A1, “Insecticidal Benzenedicarboxamide Derivative” (priority 2008, published 2011).
# Assay: logP(acid) by reverse phase (C18) chromatography at pH 2.3
# Format: physicochemical
# Conditions: pH 2.3
row,Compound,chromatographic logP
1,Cc1nc(Cn2cc(C(F)(F)C(F)(F)F)c(C(F)(F)C(F)(F)F)n2)ccc1N [SYNTHESIS EXAMPLE 82-2],2.64

# Same assay, conditions: pH 2.3; reverse phase (C18) chromatography, pH2.3, 0.1% phosphoric acid / acetonitrile gradient 10-95%; read-out: logP (acid)
row,Compound,chromatographic logP
1,Cc1nc(Cn2nnc(C(F)(F)C(F)(F)C(F)(F)F)n2)ccc1[N+](=O)[O-] [SYNTHESIS EXAMPLE 86-1],3.78

# Same assay, conditions: reverse phase (C18) chromatography at pH 2.3
Compound,logP (acid),Physical property logP (acid)
CSC[C@H](C)NC(=O)c1c(I)cccc1C(=O)Nc1ccc(Cn2nc(C(F)(F)C(F)(F)F)cc2C(F)(F)F)nc1C [13-157],logP (acid) 4.39,
COc1ccc(Br)c(C(=O)Nc2ccc(Cn3nc(C(F)(F)F)cc3C(F)(F)F)nc2C)c1C(=O)N[C@@H](C)C[S+](C)[O-] (some centres unmarked) [11-17],logP (acid) 2.6,
Cc1nc(Cn2cc(C(F)(F)C(F)(F)F)c(C(F)(F)C(F)(F)F)n2)ccc1NC(=O)c1cccc(Cl)c1C(=O)N[C@@H](C)CS(C)(=O)=O [13-110],logP (acid) 3.46,
Cc1nc(Cn2nc(C(F)(F)C(F)(F)F)nc2C(F)(F)F)ccc1NC(=O)c1cccc(Cl)c1C(=O)NC(C)C[S+](C)[O-] (centres unmarked) [14-60],,logP (acid) 2.59
CSC[C@H](C)NC(=O)c1c(Cl)cccc1C(=O)Nc1cnc(Cn2nc(C(F)(F)F)cc2C(F)(F)F)cc1C [13-175],logP (acid) 3.52,
Cc1nc(Cn2nc(C(F)(F)C(F)(F)F)cc2C(F)(F)F)ccc1NC(=O)c1cccc(Cl)c1C(=O)N[C@@H](C)CS(C)(=O)=O [13-186],logP (acid) 3.12,
CSC[C@H](C)NC(=O)c1c(Cl)cc(Cl)cc1C(=O)Nc1ccc(Cn2nc(C(F)(F)F)cc2C(F)(F)F)nc1C [10-1],logP (acid) 4.18,
CSC[C@H](C)NC(=O)c1c(I)ccc(F)c1C(=O)Nc1ccc(Cn2nc(C(F)(F)F)cc2C(F)(F)F)nc1C [11-1],logP (acid) 3.72,
CSC[C@H](C)NC(=O)c1c(Cl)cccc1C(=O)Nc1ccc(Cn2nc(C(F)F)c(Br)c2C(F)F)nc1C [13-28],3.20,
CCCCCSc1nc(C(F)(F)F)nn1Cc1ccc(NC(=O)c2cccc(Cl)c2C(=O)NC(C)CSC)c(C)c1 (centres unmarked) [14-40],,logP (acid) 4.91
CSC[C@H](C)NC(=O)c1c(Br)cccc1C(=O)Nc1cnc(Cn2nc(C(F)(F)F)cc2C(F)(F)F)cc1C [13-178],logP (acid) 3.59,
Cc1cc(Cn2nc(C(F)(F)C(F)(F)F)nc2C(F)(F)F)ccc1NC(=O)c1cc(F)cc(Cl)c1C(=O)N[C@@H](C)C[S+](C)[O-] (some centres unmarked) [10-14],logP (acid) 3.00,
Cc1nc(Cn2nc(C(F)(F)F)cc2C(F)(F)F)ccc1NC(=O)c1c(Cl)ccc(Cl)c1C(=O)N[C@@H](C)C[S+](C)[O-] (some centres unmarked) [11-5],logP (acid) 2.65,
CSC[C@H](C)NC(=O)c1c(Cl)ccc(Cl)c1C(=O)Nc1ccc(Cn2nc(C(F)(F)C(F)(F)F)nc2C(F)(F)F)cc1C [11-27],logP (acid) 4.51,
CSC[C@H](C)NC(=O)c1c(Br)cccc1C(=O)Nc1ccc(Cn2cc(C(F)(F)C(F)(F)F)c(C(F)(F)C(F)(F)F)n2)nc1C [13-134],logP (acid) 4.35,
Cc1nc(Cn2nc(C(F)(F)F)cc2C(F)(F)F)ccc1NC(=O)c1c(Cl)ccc(Cl)c1C(=O)N[C@@H](C)CS(C)(=O)=O [11-6],logP (acid) 3.05,
Cc1nc(Cn2nc(C(F)(F)C(F)(F)F)cc2C(F)(F)F)ccc1NC(=O)c1cccc(Br)c1C(=O)N[C@@H](C)CS(C)(=O)=O [13-187],logP (acid) 3.19,
Cc1nc(Cn2nc(C(F)(F)C(F)(F)F)cc2C(F)(F)F)ccc1NC(=O)c1cccc(Cl)c1C(=O)N[C@@H](C)C[S+](C)[O-] (some centres unmarked) [13-70],2.86,
CSC[C@H](C)NC(=O)c1c(I)cccc1C(=O)Nc1cnc(Cn2nc(C(F)(F)F)cc2C(F)(F)F)cc1C [13-181],logP (acid) 3.67,

# Same assay, conditions: reverse phase (C18) chromatography at pH2.3, 0.1% phosphoric acid aqueous solution / acetonitrile gradient
row,Compound,logP (acid)
1,CSC[C@H](C)NC(=O)c1c(Cl)cccc1C(=O)Nc1cc(F)c(Cn2nc(C(F)(F)F)cc2C(F)(F)F)nc1C [7-150],logP (acid) 4.13

# Same assay, conditions: reverse phase (C18) chromatography at pH2.3, 0.1% phosphoric acid aqueous solution / acetonitrile, linear gradient 10-95%
row,Compound,logP (acid)
1,CNC(=O)c1cc(Cl)cc(Cl)c1C(=O)Nc1cc(Cl)cc(Cn2nc(C(F)(F)F)nc2C(F)(F)F)c1 [4-1],logP (acid) 3.32
2,CSC[C@H](C)NC(=O)c1c(Cl)cccc1C(=O)Nc1cccc(Cn2nc(C(F)(F)C(F)(F)F)nc2-c2ccc(C(F)(F)F)cc2)c1C [4-10],logP (acid) 4.44

# Same assay, conditions: reverse phase (C18) chromatography at pH2.3, 0.1% phosphoric acid aqueous solution / acetonitrile, linear gradient 10-95% acetonitrile
row,Compound,logP (acid)
1,Cc1cc(Cn2nc(C(F)(F)F)nc2C(F)(F)F)c(F)cc1NC(=O)c1cccc(Cl)c1C(=O)N[C@@H](C)CS(C)(=O)=O [7-9],logP (acid) 3.02
2,Cc1cc(Cn2nc(C(F)(F)F)nc2C(F)(F)F)c(F)cc1NC(=O)c1cccc(Br)c1C(=O)N[C@@H](C)CS(C)(=O)=O [7-15],logP (acid) 3.08

# Same assay, conditions: reverse phase (C18) chromatography column, pH 2.3; reverse phase (C18) chromatography, pH2.3, 0.1% phosphoric acid / acetonitrile gradient 10-95%; read-out: logP (acid)
row,Compound,chromatographic logP
1,Cc1nc(Cn2cc(C(F)(F)C(F)(F)F)c(C(F)(F)C(F)(F)F)n2)ccc1[N+](=O)[O-] [SYNTHESIS EXAMPLE 82-1],4.5
2,Cc1cc(COS(C)(=O)=O)ncc1[N+](=O)[O-] [SYNTHESIS EXAMPLE 68-1],1.49

# Same assay, conditions: reverse phase (C18) chromatography, pH 2.3
row,Compound,logP (acid)
1,Cc1nc(Cn2c(C(F)(F)F)nc(Cl)c2Cl)ccc1NC(=O)c1cccc(Cl)c1C(=O)N[C@@H](C)CS(C)(=O)=O [13-364],logP (acid) 2.59
2,CSC[C@H](C)NC(=O)c1c(Cl)cccc1C(=O)Nc1ccc(Cn2cc(C(=O)N(C)C)c(C(F)(F)F)n2)cc1C [13-207],logP (acid) 2.56
3,CSC[C@H](C)NC(=O)c1c(Br)cccc1C(=O)Nc1ccc(Cn2cnc(C(F)(F)C(F)F)n2)nc1C [14-302],logP (acid) 2.48
4,CSC[C@H](C)NC(=O)c1c(Cl)cccc1C(=O)Nc1ccc(Cn2nc(C(F)(F)C(F)(F)F)n(C(F)F)c2=O)cc1C [14-328],logP (acid) 3.68
5,Cc1cc(Cn2nc(C(F)(F)C(F)(F)F)nc2C(F)(F)F)ccc1NC(=O)c1cccc(Br)c1C(=O)NC(C)CC1(C)OCCCO1 (centres unmarked) [14-359],logP (acid) 4.06
6,CSC[C@H](C)NC(=O)c1c(SC)cccc1C(=O)Nc1ccc(Cn2nc(C(F)(F)C(F)(F)F)cc2C(F)(F)C(F)(F)F)nc1C [13-342],logP (acid) 4.45
7,Cc1cc(Cn2nc(C(F)(F)C(F)(F)F)nc2C(F)(F)F)ccc1NC(=O)c1cccc(I)c1C(=O)NC(C)CC1(C)OCCO1 (centres unmarked) [14-361],logP (acid) 3.95
8,Cc1cc(Cn2nc(C(F)(F)C(F)(F)F)n(N)c2=O)ccc1NC(=O)c1cccc(Cl)c1C(=O)N[C@@H](C)C[S+](C)[O-] (some centres unmarked) [14-422],logP (acid) 1.82
9,CSc1cccc(C(=O)Nc2ccc(Cn3nc(C(F)(F)C(F)(F)F)cc3C(F)(F)F)nc2C)c1C(=O)N[C@@H](C)C[S+](C)[O-] (some centres unmarked) [13-343],logP (acid) 2.78
10,CSC[C@H](C)NC(=O)c1c(Cl)cccc1C(=O)Nc1ccc(Cn2cc(C(=O)NC(C)C)c(C(F)(F)F)n2)cc1C [13-209],logP (acid) 2.87
11,Cc1nc(Cn2nc(C(F)(F)C(F)(F)F)nc2C(F)(F)F)ccc1NC(=O)c1cccc(S(C)(=O)=O)c1C(=O)N[C@@H](C)CS(C)(=O)=O [14-396],logP (acid) 2.76
12,CSC[C@H](C)NC(=O)c1c(Cl)cccc1C(=O)Nc1ccc(Cn2nc(C(F)(F)F)nc2NC(=O)C(F)(F)F)cc1C [14-353],logP (acid) 3.11
13,CSC[C@H](C)NC(=O)c1c(Br)cccc1C(=O)Nc1ccc(Cn2nc(C(F)(F)C(F)(F)F)n(C(F)F)c2=O)cc1C [14-331],logP (acid) 3.75
14,Cc1nc(Cn2nc(C(F)(F)F)nc2C(F)(F)F)ccc1NC(=O)c1cccc(S(C)(=O)=O)c1C(=O)N[C@@H](C)CS(C)(=O)=O [14-368],logP (acid) 2.43
15,Cc1cc(Cn2nc(C(F)(F)C(F)(F)F)nc2C(F)(F)F)ccc1NC(=O)c1cccc(Cl)c1C(=O)NC(C)CC1(C)OCCO1 (centres unmarked) [14-360],logP (acid) 3.86
16,CSC[C@H](C)NC(=O)c1cc(Cl)c(Cl)cc1C(=O)Nc1ccc(Cn2nc(C(F)(F)F)cc2C(F)(F)F)nc1C [13-238],logP (acid) 3.74
17,Cc1cc(Cn2nnc(-c3ccc(C(F)(F)F)cc3)n2)ccc1NC(=O)c1cccc(Br)c1C(=O)N[C@@H](C)CS(C)(=O)=O [14-348],logP (acid) 3.22
18,Cc1nc(Cn2nc(C(F)(F)F)n(C)c2=O)ccc1NC(=O)c1cccc(Cl)c1C(=O)N[C@@H](C)CS(C)(=O)=O [14-322],logP (acid) 1.60
19,CSC[C@H](C)NC(=O)c1c(C(=O)Nc2ccc(Cn3nc(C(F)(F)C(F)(F)F)cc3C(F)(F)F)cc2C)cccc1S(C)(=O)=O [13-311],logP (acid) 4.20
20,CC(=O)OC[C@H](C)NC(=O)c1c(Cl)cccc1C(=O)Nc1ccc(Cn2nc(C(F)(F)F)nc2C(F)(F)F)cc1C [14-298],logP (acid) 3.08
21,CSC[C@H](C)NC(=O)c1c(Cl)cccc1C(=O)Nc1ccc(Cn2nnc(C(F)(F)F)n2)nc1C [14-306],logP (acid) 2.91
22,Cc1cc(Cn2nc(C(F)(F)C(F)(F)F)nc2C(F)(F)F)ccc1NC(=O)c1cccc(I)c1C(=O)NC(C)CC1(C)OCCCO1 (centres unmarked) [14-358],logP (acid) 3.95
23,CSC[C@H](C)NC(=O)c1c(C(=O)Nc2ccc(Cn3nc(C(F)(F)F)nc3C(F)(F)F)cc2C)cccc1S(=O)(=O)N(C)C [14-414],logP (acid) 3.54
24,CSC[C@H](C)NC(=O)c1c(SC)cccc1C(=O)Nc1ccc(Cn2nc(C(F)(F)C(F)F)nc2C(F)(F)F)nc1C [14-397],logP (acid) 3.49
25,Cc1nc(N(C)c2c(C(F)(F)F)c(C(F)(F)C(F)(F)F)nn2C)ccc1NC(=O)c1cccc(Cl)c1C(=O)N[C@@H](C)C[S+](C)[O-] (some centres unmarked) [13-354],logP (acid) 2.91

# Same assay, conditions: reverse phase (C18) chromatography, pH2.3, 0.1% phosphoric acid aqueous solution / acetonitrile, linear gradient 10-95% acetonitrile
row,Compound,logP (acid)
1,CSC[C@H](C)NC(=O)c1c(C(=O)Nc2ccc(Cn3nc(C(F)(F)F)nc3C(F)(F)F)cc2C)ccc(C(F)(F)F)c1Cl [9-18],logP (acid) 4.30
2,CSC[C@H](C)NC(=O)c1c(C(=O)Nc2ccc(Cn3nc(C(F)(F)C(F)(F)F)nc3C(F)(F)F)cc2C)ccc(F)c1Br [9-12],logP (acid) 4.29
3,Cc1cc(Cn2nc(C(F)(F)F)nc2C(F)(F)F)ccc1NC(=O)c1ccc(C(F)(F)F)c(Cl)c1C(=O)N[C@@H](C)C[S+](C)[O-] (some centres unmarked) [9-19],logP (acid) 2.98
